What was measured:
[1] = Stability of analytes in rat plasma QC samples under processing and storage conditions; type: in vitro ADME; conditions: n = 6; for Measured concentration, room temperature for 4h / Measured concentration, three freeze-thaw / Measured concentration, −70°C for 21 days: rat plasma; for Measured concentration, autosampler for 12h: treated rat plasma sample
Description: The stability of the 13 analytes was evaluated by QC samples in different processing and storage conditions, including short-term stability (putting the analytes in ambient temperature for 4 h and storing analytes in autosampler for 12 h after treatment), long-term stability (storing the analytes at −70°C for 21 days) and subjecting analytes to three freeze-thaw cycles. All stability experiments were tested in six parallels with low, middle, and high concentrations.

[2] = Pharmacokinetic study in rats after oral administration of Semen Cuscutae extract (HPLC-MS/MS of plasma); type: in vivo, Sprague–Dawley rats; conditions: oral Semen Cuscutae extract 13 g/kg; for plasma concentration after 15 minutes of intragastric administration / AUC(0-inf) / Cmax / AUC / T max / t 1/2: rat plasma; for plasma concentration after 15 minutes of intragastric administration: LLOQ 1 ng/mL; for AUC: read-out: AUC(0-tn)
Description: 20 μL of methanol, 20 μL of IS (liquiritin, 200 ng/mL) and 20 μL of formic acid were added to 100 μL of plasma sample and then vortex-mixed. The mixture was extracted with 800 μL of acetonitrile by vortexing for 3 min. After centrifugation at 14000 rpm for 10 min, the supernatant was transferred to a clean glass tube and dried with nitrogen. The residue was reconstituted in 100 μL of methanol and then centrifuged at 14000 rpm for 10 min. 5 μL of supernatant was injected into the LC–MS/MS system for analysis.
Six Sprague–Dawley rats (SPF, 200 ± 10 g, male) were purchased from HFK Laboratory Animal Technology Co., Ltd. The rats were housed in a standard laboratory condition (12 h dark-light cycle; temperature was 25°C ± 2°C and humidity was kept 50 ± 5%) and fed standard dry pellet diet and water for one week for acclimatization. Before the experiments, the rats were in fasting state for 12 h, with free access to water. The Semen Cuscutae extracts were dissolved in 0.5% carboxymethyl cellulose-sodium, prepared into suspension and gavage to the rats at a dose of 13 g/kg. Approximately 200 μL of rat blood samples was collected from the orbital venous plexus at 0, 0.03, 0.08, 0.17, 0.25, 0.5, 1, 2, 4, 6, 8, 10, 12, 24, 36, and 48 h after oral administration into 1.5 mL heparinized centrifuge tube. After centrifugation at 7000 rpm for 10 min immediately, the supernatant was collected into a new centrifuge tube and stored at −70°C until analysis.
Pharmacokinetic parameters (Cmax, t1/2, Tmax, AUC(0-tn), and AUC(0-∞)) were obtained using the software “Drug and Statistics 3.0” (DAS 3.0) (Medical College of Wannan, China).

[3] = male, Sprague-Dawley, rat, plasma, po, 13 g/kg, n = 6

Structure (SMILES) | Measured concentration, room temperature for 4h ([1]; spiked 2 ng/mL) [ng/mL] | Measured concentration, three freeze-thaw ([1]; spiked 2 ng/mL) [ng/mL] | Measured concentration, −70°C for 21 days ([1]; spiked 2 ng/mL) [ng/mL] | Measured concentration, room temperature for 4h ([1]; spiked 25 ng/mL) [ng/mL] | Measured concentration, three freeze-thaw ([1]; spiked 25 ng/mL) [ng/mL] | Measured concentration, −70°C for 21 days ([1]; spiked 25 ng/mL) [ng/mL] | Measured concentration, room temperature for 4h ([1]; spiked 250 ng/mL) [ng/mL] | Measured concentration, three freeze-thaw ([1]; spiked 250 ng/mL) [ng/mL] | Measured concentration, −70°C for 21 days ([1]; spiked 250 ng/mL) [ng/mL] | Measured concentration, autosampler for 12h ([1]; spiked 2 ng/mL) [ng/mL] | Measured concentration, autosampler for 12h ([1]; spiked 25 ng/mL) [ng/mL] | Measured concentration, autosampler for 12h ([1]; spiked 250 ng/mL) [ng/mL] | AUC(0-inf) ([2]; male, Sprague-Dawley, n = 6) [µg·h/mL] | Cmax ([2]; male, Sprague-Dawley, n = 6) [µg/mL] | AUC ([2]; male, Sprague-Dawley, n = 6) [µg·h/mL] | T max ([2]; n = 6) [min] | t 1/2 ([2]; n = 6) [min] | half-life [2, 3] [min] | other results
O=c1cc(-c2ccc(O)cc2)oc2cc(O)cc(O)c12 [Apigenin] | 2.2 ± 0.1 | 2.0 ± 0.1 | 2.1 ± 0.1 | 26.4 ± 1.2 | 25.7 ± 2.0 | 26.5 ± 1.3 | 249.3 ± 12.8 | 262.2 ± 16.0 | 257.8 ± 8.2 | 2.1 ± 0.2 | 25.0 ± 1.2 | 248.5 ± 4.9 |  |  |  |  |  |  | plasma concentration after 15 minutes of intragastric administration [2]: lower than the LLOQ
O=c1c(O[C@@H]2O[C@H](CO)[C@@H](O)[C@H](O)[C@H]2O)c(-c2ccc(O)cc2)oc2cc(O)cc(O)c12 [Astragalin] | 2.1 ± 0.1 | 2.1 ± 0.1 | 2.0 ± 0.1 | 27.6 ± 1.2 | 27.2 ± 0.8 | 26.1 ± 1.2 | 248.1 ± 4.3 | 258.6 ± 8.5 | 251.5 ± 8.7 | 2.1 ± 0.1 | 27.3 ± 1.0 | 254.6 ± 4.6 | 0.441 ± 0.292 | 0.0582 ± 0.0285 | 0.37 ± 0.259 | 14.4 ± 5.4 | 27 ± 15.6 |  | T max ([2]; n = 6, listed as astragalin): less than 1 h; t 1/2 ([2]; n = 6, listed as astragalin): less than 1.5 h
O=C(O)/C=C/c1ccc(O)c(O)c1 [Caffeic acid] | 2.1 ± 0.1 | 2.1 ± 0.1 | 2.0 ± 0.1 | 27.9 ± 1.0 | 27.0 ± 1.3 | 26.0 ± 0.6 | 272.5 ± 8.9 | 255.7 ± 3.9 | 250.2 ± 5.1 | 2.2 ± 0.1 | 28.1 ± 0.8 | 262.6 ± 7.4 | 0.652 ± 0.292 | 0.0337 ± 0.00843 | 0.613 ± 0.291 |  | 696 ± 55.2 | > 450 | Tmax [2, 3]: 16.8 ± 2.4 min
O=C(/C=C/c1ccc(O)c(O)c1)O[C@@H]1C[C@](O)(C(=O)O)C[C@@H](O)[C@H]1O [Chlorogenic acid] | 2.1 ± 0.1 | 2.1 ± 0.1 | 2.1 ± 0.1 | 27.7 ± 1.6 | 28.1 ± 1.0 | 26.6 ± 1.2 | 258.4 ± 15.7 | 268.6 ± 15.8 | 253.6 ± 7.7 | 2.1 ± 0.1 | 26.6 ± 1.6 | 253.1 ± 6.0 | 1 ± 0.646 | 0.0355 ± 0.0073 | 0.995 ± 0.654 | 13.2 ± 3.6 | 61.2 ± 40.2 | < 90 | T max ([2]; n = 6, listed as chlorogenic acid): less than 1 h
O=C(/C=C/c1ccc(O)c(O)c1)O[C@H]1[C@H](O)C[C@](O)(C(=O)O)C[C@H]1O [Cryptochlorogenic acid] | 2.0 ± 0.1 | 2.0 ± 0.1 | 2.0 ± 0.1 | 27.0 ± 1.8 | 26.2 ± 0.3 | 25.5 ± 1.2 | 260.4 ± 3.3 | 248.9 ± 6.5 | 244.4 ± 7.4 | 2.1 ± 0.1 | 27.3 ± 0.6 | 251.2 ± 9.7 |  |  |  |  |  |  | plasma concentration after 15 minutes of intragastric administration [2]: lower than the LLOQ
O=c1c(O[C@@H]2O[C@H](CO)[C@H](O)[C@H](O)[C@H]2O)c(-c2ccc(O)c(O)c2)oc2cc(O)cc(O)c12 [Hyperoside] | 2.0 ± 0.1 | 2.1 ± 0.1 | 1.9 ± 0.1 | 23.0 ± 1.2 | 26.2 ± 1.5 | 26.4 ± 1.8 | 244.4 ± 14.3 | 254.7 ± 9.7 | 256.4 ± 15.8 | 1.8 ± 0.1 | 23.6 ± 0.7 | 230.2 ± 13.1 | 0.754 ± 0.424 | 0.0298 ± 0.0128 | 0.684 ± 0.407 | 10.2 ± 4.2 | 21.6 ± 13.8 |  | T max ([2]; n = 6, listed as hyperoside): less than 1 h; t 1/2 ([2]; n = 6, listed as hyperoside): less than 1.5 h
COc1cc(-c2oc3cc(O)cc(O)c3c(=O)c2O[C@@H]2O[C@H](CO)[C@@H](O)[C@H](O)[C@H]2O)ccc1O [Isorhamnetin-3-O-glucoside] | 2.0 ± 0.1 | 2.0 ± 0.1 | 2.1 ± 0.1 | 27.1 ± 1.3 | 27.1 ± 1.5 | 26.2 ± 0.6 | 259.9 ± 5.5 | 255.0 ± 5.7 | 249.5 ± 7.0 | 2.1 ± 0.1 | 26.9 ± 1.0 | 251.5 ± 5.4 | 0.257 ± 0.0744 | 0.0195 ± 0.0098 | 0.172 ± 0.0492 | 18 ± 0.6 | 73.8 ± 15.6 | < 90 | T max ([2]; n = 6, listed as isorhamnetin-3-O-glucoside): less than 1 h

Source: PMC6925736, “Development of a HPLC-MS/MS Method to Determine the 13 Elements of Semen Cuscutae and Application to a Pharmacokinetic Study in Rats” (Evidence-based Complementary and Alternative Medicine : eCAM, 2019)
